pIC50: −log10 of the molar value.
Target: interaction between p53 and MDM2 proteins (Homo sapiens, UniProt Q00987)
Assay: HTRF assay of inhibition of the p53-MDM2 interaction (GST-MDM2 / biotinylated p53 peptide)
Type: binding
Details: recombinant GST-tagged MDM2 and biotinylated p53 peptide, bsa:0.02%
Experimental: The ability of the compounds to inhibit the interaction between p53 and MDM2 proteins was measured by an HTRF (homogeneous time-resolved fluorescence) assay in which recombinant GST-tagged MDM2 binds to a peptide that resembles the MDM2-interacting region of p53. Binding of GST-MDM2 protein and p53-peptide (biotinylated on its N-terminal end) is registered by the FRET (fluorescence resonance energy transfer) between Europium (Eu)-labeled anti-GST antibody and streptavidin-conjugated Allophycocyanin (APC).
Add 10 uL diluted compounds (1:5 dilution in reaction buffer) to each well, mix by shaking. Add 20 uL biotinylated p53 peptide (180 nM working solution) in reaction buffer to each well and mix on shaker. Incubate at 37° C. for 1 h. Add 20 uL streptavidin-APC and Eu-anti-GST antibody mixture (6 nM Eu-anti-GST and 60 nM streptavidin-APC working solution) in TBS buffer with 0.2% BSA, shake at room temperature for 30 minutes and read using a TRF-capable plate reader at
665 and 615 nm (Victor 5, Perkin ElmerWallac). If not specified, the reagents were purchased from Sigma Chemical Co.

interaction between p53 and MDM2 proteins, sequence (Q00987 whole entry): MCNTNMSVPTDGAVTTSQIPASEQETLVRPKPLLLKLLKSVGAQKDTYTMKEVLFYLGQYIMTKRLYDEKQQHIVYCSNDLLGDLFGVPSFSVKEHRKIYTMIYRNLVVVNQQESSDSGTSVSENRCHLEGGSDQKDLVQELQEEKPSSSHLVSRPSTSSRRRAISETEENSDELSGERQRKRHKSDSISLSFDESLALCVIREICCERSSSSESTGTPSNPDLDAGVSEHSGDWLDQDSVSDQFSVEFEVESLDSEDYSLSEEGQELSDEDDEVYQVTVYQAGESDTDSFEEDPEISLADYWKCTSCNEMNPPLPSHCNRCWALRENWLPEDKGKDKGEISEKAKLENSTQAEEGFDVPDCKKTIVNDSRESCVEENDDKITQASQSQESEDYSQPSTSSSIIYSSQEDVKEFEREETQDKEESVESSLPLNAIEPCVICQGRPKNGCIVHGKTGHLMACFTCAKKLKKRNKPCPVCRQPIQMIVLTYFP

SMILES | pIC50
COC(=O)c1ccc(NC(=O)[C@@H]2N[C@@H](CC(C)(C)C)[C@@]3(C(=O)Nc4cc(Cl)ccc43)[C@H]2c2cccc(Cl)c2F)cc1OC (racemic) [Example 15, rac-4-{[(2′S,3′R,4′S,5′R)-6-chloro-4′-(3-chloro-2-fluoro-phenyl)-2′-(2,2-dimethyl-propyl)-2-oxo-1,2-dihydro-spiro[indole-3,3′-pyrrolidine]-5′-carbonyl]amino}-2-methoxy-benzoic acid methyl ester] | 7.89
COc1cc(NC(=O)[C@@H]2N[C@@H](CC(C)(C)C)[C@@]3(C(=O)Nc4cc(Cl)ccc43)[C@H]2c2cccc(Cl)c2F)ccc1C(=O)O (racemic) [Example 16, rac-4-{[(2′S,3′R,4′S,5′R)-6-chloro-4′-(3-chloro-2-fluoro-phenyl)-2′-(2,2-dimethyl-propyl)-2-oxo-1,2-dihydro-spiro[indole-3,3′-pyrrolidine]-5′-carbonyl]-amino}-2-methoxy-benzoic acid] | 8.00
CC(C)(C)C[C@@H]1N[C@@H](C(=O)Nc2ccc(Cl)cc2)[C@H](c2cccc(Cl)c2F)[C@]12C(=O)Nc1cc(Cl)ccc12 (racemic) [Example 21, rac-(2′S,3′R,4′S,5′R)-6-chloro-4′-(3-chloro-2-fluoro-phenyl)-2′-(2,2-dimethyl-propyl)-2-oxo-1,2-dihydro-spiro[indole-3,3′-pyrrolidine]-5′-carboxylic acid (4-chloro-phenyl)-amide] | 7.72
COc1cc(NC(=O)[C@@H]2N[C@@H](CC(C)(C)C)[C@@]3(C(=O)Nc4cc(Cl)ccc43)[C@H]2c2cccc(Cl)c2F)ccc1C(N)=O (racemic) [Example 22, rac-(2′S,3′R,4′S,5′R)-6-chloro-4′-(3-chloro-2-fluoro-phenyl)-2′-(2,2-dimethyl-propyl)-2-oxo-1,2-dihydro-spiro[indole-3,3′-pyrrolidine]-5′-carboxylic acid (4-carbamoyl-3-methoxy-phenyl)-amide] | 7.96
COC(=O)c1ccc(NC(=O)[C@@H]2N[C@@H](CC(C)(C)C)[C@@]3(C(=O)Nc4cc(Cl)ccc43)[C@H]2c2cccc(Cl)c2F)cc1Cl (racemic) [Example 25, rac-2-chloro-4-{[(2′S,3′R,4′S,5′R)-6-chloro-4′-(3-chloro-2-fluoro-phenyl)-2′-(2,2-dimethyl-propyl)-2-oxo-1,2-dihydro-spiro[indole-3,3′-pyrrolidine]-5′-carbonyl]-amino}-benzoic acid methyl ester] | 7.70
Cn1ccc(NC(=O)[C@@H]2N[C@@H](CC(C)(C)C)[C@@]3(C(=O)Nc4cc(Cl)ccc43)[C@H]2c2cccc(Cl)c2F)cc1=O (racemic) [Example 27, rac-(2′S,3′R,4′S,5′R)-6-chloro-4′-(3-chloro-2-fluoro-phenyl)-2′-(2,2-dimethyl-propyl)-2-oxo-1,2-dihydro-spiro[indole-3,3′-pyrrolidine]-5′-carboxylic acid (1-methyl-2-oxo-1,2-dihydro-pyridin-4-yl)-amide] | 7.77
CC(C)(C)C[C@@H]1N[C@@H](C(=O)Nc2ccn(CCO)c(=O)c2)[C@H](c2cccc(Cl)c2F)[C@]12C(=O)Nc1cc(Cl)ccc12 (racemic) [Example 30] | 7.85
COC(=O)c1cccc(NC(=O)[C@@H]2N[C@@H](CC(C)(C)C)[C@@]3(C(=O)Nc4cc(Cl)ccc43)[C@H]2c2cccc(Cl)c2F)c1 (racemic) [Example 31, rac-3-{[(2′S,3′R,4′S,5′R)-6-chloro-4′-(3-chloro-2-fluoro-phenyl)-2′-(2,2-dimethyl-propyl)-2-oxo-1,2-dihydro-spiro[indole-3,3′-pyrrolidine]-5′-carbonyl]amino}-benzoic acid methyl ester] | 7.77
CC(C)(C)C[C@@H]1N[C@@H](C(=O)Nc2cccc(C(=O)O)c2)[C@H](c2cccc(Cl)c2F)[C@]12C(=O)Nc1cc(Cl)ccc12 (racemic) [Example 32, rac-3-{[(2′S,3′R,4′S,5′R)-6-chloro-4′-(3-chloro-2-fluoro-phenyl)-2′-(2,2-dimethyl-propyl)-2-oxo-1,2-dihydro-spiro[indole-3,3′-pyrrolidine]-5′-carbonyl]-amino}-benzoic acid] | 7.77
CC(C)(C)C[C@@H]1N[C@@H](C(=O)Nc2cccc(C(N)=O)c2)[C@H](c2cccc(Cl)c2F)[C@]12C(=O)Nc1cc(Cl)ccc12 (racemic) [Example 33, rac-(2′S,3′R,4′S,5′R)-6-chloro-4′-(3-chloro-2-fluoro-phenyl)-2′-(2,2-dimethyl-propyl)-2-oxo-1,2-dihydro-spiro[indole-3,3′-pyrrolidine]-5′-carboxylic acid (3-carbamoyl-phenyl)-amide] | 7.89
CN(C)C(=O)c1ccc(NC(=O)[C@@H]2N[C@@H](CC(C)(C)C)[C@@]3(C(=O)Nc4cc(Cl)ccc43)[C@H]2c2cccc(Cl)c2F)cc1 (racemic) [Example 34, rac-(2′S,3′R,4′S,5′R)-6-chloro-4′-(3-chloro-2-fluoro-phenyl)-2′-(2,2-dimethyl-propyl)-2-oxo-1,2-dihydro-spiro[indole-3,3′-pyrrolidine]-5′-carboxylic acid (4-dimethylcarbamoyl-phenyl)-amide] | 7.74
Cc1ccc(NC(=O)[C@@H]2N[C@@H](CC(C)(C)C)[C@@]3(C(=O)Nc4cc(Cl)ccc43)[C@H]2c2cccc(Cl)c2F)cc1 (racemic) [Example 36, rac-(2′S,3′R,4′S,5′R)-6-chloro-4′-(3-chloro-2-fluoro-phenyl)-2′-(2,2-dimethyl-propyl)-2-oxo-1,2-dihydro-spiro[indole-3,3′-pyrrolidine]-5′-carboxylic acid p-tolylamide] | 7.74

Other lines, results leading:

pIC50 | SMILES
< 5.00 | CC(C)(C)C[C@@H]1N[C@@H](C(=O)Nc2ccc(S(C)(=O)=O)cc2F)[C@H](c2cccc(Cl)c2F)[C@]12C(=O)Nc1cc(Cl)ccc12 (racemic) [Example 37, rac-(2′S,3′R,4′S,5′R)-6-chloro-4′-(3-chloro-2-fluoro-phenyl)-2′-(2,2-dimethyl-propyl)-2-oxo-1,2-dihydro-spiro[indole-3,3′-pyrrolidine]-5′-carboxylic acid (2-fluoro-4-methanesulfonyl-phenyl)-amide]
7.85 | CC(C)(C)C[C@@H]1N[C@@H](C(=O)Nc2ccc(C(=O)CO)cc2)[C@H](c2cccc(Cl)c2F)[C@]12C(=O)Nc1cc(Cl)ccc12 (racemic) [Example 42, rac-(2′S,3′R,4′S,5′R)-6-chloro-4′-(3-chloro-2-fluoro-phenyl)-2′-(2,2-dimethyl-propyl)-2-oxo-1,2-dihydro-spiro[indole-3,3′-pyrrolidine]-5′-carboxylic acid [4-(2-hydroxy-acetyl)-phenyl]-amide]
8.00 | CC(C)(C)C[C@@H]1N[C@@H](C(=O)Nc2ccn(CCO)n2)[C@H](c2cccc(Cl)c2F)[C@]12C(=O)Nc1cc(Cl)ccc12 (racemic) [Example 44, rac-(2′S,3′R,4′S,5′R)-6-chloro-4′-(3-chloro-2-fluoro-phenyl)-2′-(2,2-dimethyl-propyl)-2-oxo-1,2-dihydro-spiro[indole-3,3′-pyrrolidine]-5′-carboxylic acid [1-(2-hydroxy-ethyl)-1H-pyrazol-3-yl]-amide]
7.80 | CC(C)(C)C[C@@H]1N[C@@H](C(=O)Nc2ccc(C#N)cc2)[C@H](c2cccc(Cl)c2F)[C@]12C(=O)Nc1cc(Cl)c(F)cc12 (racemic) [Example 48, rac-(2′S,3′R,4′S,5′R)-6-chloro-4′-(3-chloro-2-fluoro-phenyl)-2′-(2,2-dimethyl-propyl)-5-fluoro-2-oxo-1,2-dihydro-spiro[indole-3,3′-pyrrolidine]-5′-carboxylic acid (4-cyano-phenyl)-amide]
7.89 | CC(C)(C)C[C@@H]1N[C@@H](C(=O)Nc2ccc(C(N)=O)cc2)[C@H](c2cccc(Cl)c2F)[C@]12C(=O)Nc1cc(Cl)c(F)cc12 (racemic) [Example 49, rac-(2′S,3′R,4′S,5′R)-6-chloro-4′-(3-chloro-2-fluoro-phenyl)-2′-(2,2-dimethyl-propyl)-5-fluoro-2-oxo-1,2-dihydro-spiro[indole-3,3′-pyrrolidine]-5′-carboxylic acid (4-carbamoyl-phenyl)-amide]
7.70 | CC(C)(C)C[C@@H]1N[C@@H](C(=O)Nc2ccc(I)cc2F)[C@H](c2cccc(Cl)c2F)[C@]12C(=O)Nc1cc(Cl)ccc12 (racemic) [Example 51, rac-(2′S,3′R,4′S,5′R)-6-chloro-4′-(3-chloro-2-fluoro-phenyl)-2′-(2,2-dimethyl-propyl)-2-oxo-1,2-dihydro-spiro[indole-3,3′-pyrrolidine]-5′-carboxylic acid (2-fluoro-4-iodo-phenyl)-amide]
7.92 | CC(C)(C)C[C@@H]1N[C@@H](C(=O)Nc2ccc(C#N)cc2F)[C@H](c2cccc(Cl)c2F)[C@]12C(=O)Nc1cc(Cl)ccc12 (racemic) [Example 52, rac-(2′S,3′R,4′S,5′R)-6-chloro-4′-(3-chloro-2-fluoro-phenyl)-2′-(2,2-dimethyl-propyl)-2-oxo-1,2-dihydro-spiro[indole-3,3′-pyrrolidine]-5′-carboxylic acid (4-cyano-2-fluoro-phenyl)-amide]
7.96 | CC(C)(C)C[C@@H]1N[C@@H](C(=O)Nc2ccc(C(N)=O)cc2F)[C@H](c2cccc(Cl)c2F)[C@]12C(=O)Nc1cc(Cl)ccc12 (racemic) [Example 53, rac-(2′S,3′R,4′S,5′R)-6-chloro-4′-(3-chloro-2-fluoro-phenyl)-2′-(2,2-dimethyl-propyl)-2-oxo-1,2-dihydro-spiro[indole-3,3′-pyrrolidine]-5′-carboxylic acid (4-carbamoyl-2-fluoro-phenyl)-amide]

Reference: US8088815B2, “Spiroindolinone pyrrolidines” (Hoffman-La Roche Inc., priority 2009, dated 2012)
